Assay results published in patent publication US9090538B2, “Uses of esteramide compounds” (priority 2010, dated 2015).

How the values were obtained:
Format in all cases: physicochemical
Design in all cases: key: Crystal: When the formation of active crystals is observed, the term of <> is indicated; Limpid: When the solution remains limpid (absence of solid or cloudiness), it is the term of <> which is indicated
[1] = Visual observation at 0° C. with nucleation (crystal of pure active introduced, 7 more days at 0° C.); settings: crystal of active added
Experimental: (§1) Formulations were made by diluting various actives, reported below in the table, in the compounds 1-4 synthesized above.
3) Visual observation at 0° C. with nucleation (by introducing a crystal of the pure active into the liquid)
A crystal of the active material is introduced into the formulation which has spent 7 days at 0° C. for nucleation, and the formulation is again placed for 7 days at 0° C. The aspect of the formulation is noted and the presence of crystals or the growth of the introduced crystal is possibly located.
(§2) The actives used are commercially available.

[2] = Visual observation at 25° C. of formulation of active in solvent
Experimental: as §1
1) Visual observation at 25° C.
The aspect of the formulation is noted and the presence of crystals is possibly located.
as §2

[3] = Visual observation at 0° C. after 7 days (CIPAC MT39 test); settings: 7 days at 0° C.
Experimental: as §1
2) Visual observation at 0° C.
The formulation is placed at 0° C. for 7 days and the aspect of the formulation is noted and the presence of crystals is possibly located (CIPAC MT39 test).
as §2

[4] = active Alachlor 48% EC in the compound as solvent
[5] = active Difenconazole 25% EC in the compound as solvent
[6] = active Phenmedipham 16% EC in the compound as solvent
[7] = active Propanil 36% EC in the compound as solvent
[8] = active Propuxur 20% EC in the compound as solvent
[9] = active alpha-Cypermethrin 10% EC in the compound as solvent
[10] = active Azoxystrobine 25% EC in the compound as solvent
[11] = active Dimethoate 40% EC in the compound as solvent
[12] = active Oxyfluorfen 22% EC in the compound as solvent
[13] = active Pendimethalin 33% EC in the compound as solvent
[14] = active Tebuconazole 25% EC in the compound as solvent
[15] = active Trifluralin 40% EC in the compound as solvent
[16] = active Chlorpyrifos 40% EC in the compound as solvent

| SMILES | Aspect at 0° C. with nucleation [1, 4] | Aspect at 0° C. with nucleation [1, 5] | Aspect at 0° C. with nucleation [1, 7] | Aspect at 0° C. with nucleation [1, 9] | Aspect at 25° C. [2, 4] | Aspect at 25° C. [2, 5] | Aspect at 25° C. [2, 11] | Aspect at 25° C. [2, 12] | Aspect at 25° C. [2, 13] | Aspect at 25° C. [2, 7] | Aspect at 25° C. [2, 8] | Aspect at 25° C. [2, 15] | Aspect at 25° C. [2, 9] | Aspect at 0° C. [3, 4] | Aspect at 0° C. [3, 5] | Aspect at 0° C. [3, 11] | Aspect at 0° C. [3, 12] | Aspect at 0° C. [3, 13] | Aspect at 0° C. [3, 7] | Aspect at 0° C. [3, 15] | also measured |
| --- | --- | --- | --- | --- | --- | --- | --- | --- | --- | --- | --- | --- | --- | --- | --- | --- | --- | --- | --- | --- | --- |
| COC(=O)C(=O)N(C)C [Compound 1, methyl 2-(dimethylamino)-2-oxoacetate] | Limpid | Limpid | Limpid | Limpid | Limpid | Limpid | Limpid | Limpid | Limpid | Limpid | Limpid | Limpid | Limpid | Limpid | Limpid | Crystal | Crystal | Crystal | Limpid | Crystal | Aspect at 0° C. with nucleation [1, 6]: Limpid; Aspect at 0° C. with nucleation [1, 8]: Limpid; Aspect at 25° C. [2, 10]: Limpid; Aspect at 25° C. [2, 6]: Limpid; Aspect at 25° C. [2, 14]: Limpid; Aspect at 0° C. [3, 10]: Crystal; Aspect at 0° C. [3, 6]: Limpid; Aspect at 0° C. [3, 8]: Limpid; Aspect at 0° C. [3, 14]: Crystal; Aspect at 0° C. [3, 9]: Limpid |
| CCOC(=O)C(=O)N(C)C [Compound 2, ethyl 2-(dimethylamino)-2-oxoacetate] | Limpid | Limpid | Limpid | Limpid | Limpid | Limpid | Limpid | Limpid | Limpid | Limpid | Limpid | Limpid | Limpid | Limpid | Limpid | Limpid | Limpid | Crystal | Limpid | Limpid | Aspect at 0° C. with nucleation [1, 16]: Limpid; Aspect at 0° C. with nucleation [1, 11]: Crystal; Aspect at 0° C. with nucleation [1, 12]: Limpid; Aspect at 0° C. with nucleation [1, 6]: Limpid; Aspect at 0° C. with nucleation [1, 15]: Limpid; Aspect at 25° C. [2, 10]: Limpid; Aspect at 25° C. [2, 16]: Limpid; Aspect at 25° C. [2, 6]: Limpid; Aspect at 25° C. [2, 14]: Limpid; Aspect at 0° C. [3, 10]: Crystal; Aspect at 0° C. [3, 16]: Limpid; Aspect at 0° C. [3, 6]: Limpid; Aspect at 0° C. [3, 8]: Crystal; Aspect at 0° C. [3, 14]: Crystal; Aspect at 0° C. [3, 9]: Limpid |
| CCCCC(CC)COC(=O)C(=O)N(C)C (centres unmarked) [Compound 3, 2-ethyl-hexyl 2-(dimethylamino)-2-oxoacetate] | Limpid | Limpid | Limpid | Limpid | Limpid | Limpid | Limpid | Limpid | Limpid | Limpid | Limpid | Limpid | Limpid | Limpid | Limpid | Crystal | Limpid | Crystal | Limpid | Limpid | Aspect at 0° C. with nucleation [1, 16]: Limpid; Aspect at 0° C. with nucleation [1, 12]: Crystal; Aspect at 0° C. with nucleation [1, 15]: Limpid; Aspect at 25° C. [2, 16]: Limpid; Aspect at 0° C. [3, 16]: Limpid; Aspect at 0° C. [3, 8]: Crystal; Aspect at 0° C. [3, 9]: Limpid |
| CCCCCCCCCCOC(=O)C(=O)N(C)C [Compound 4, n-decyl 2-(dimethylamino)-2-oxoacetate] | Limpid | Limpid |  |  | Limpid | Limpid |  | Limpid |  | Limpid |  | Limpid |  | Limpid | Limpid |  | Crystal |  | Crystal | Limpid | Aspect at 0° C. with nucleation [1, 15]: Limpid; Aspect at 25° C. [2, 16]: Limpid; Aspect at 0° C. [3, 16]: Crystal |
